The compounds below were run against human NaV 1.8 (Homo sapiens, UniProt Q9Y5Y9) (assay: E-VIPR Assay Detecting and Measuring NaV Inhibition Properties). Details: HEK cells expressing a truncated form of human NaV 1.8 with full channel activity; electrical stimulation, membrane-potential FRET dyes; 30 minutes compound incubation; read-out: measured IC50 value in the E-VIPR Assay.
Type: cell-based
Excerpt: E-VIPR Assay Detecting and Measuring NaV Inhibition Properties
Sodium ion channels are voltage-dependent proteins that can be activated by inducing membrane voltage changes by applying electric fields. The electrical stimulation instrument and methods of use, referred to as E-VIPR, are described in International Publication No. WO 2002/008748 A3 and C.-J. Huang et al. Characterization of voltage-gated sodium channel blockers by electrical stimulation and fluorescence detection of membrane potential, 24 Nature Biotech. 439-46 (2006), both of which are incorporated by reference in their entirety. The instrument comprises a microtiter plate handler, an optical system for exciting the coumarin dye while simultaneously recording the coumarin and oxonol emissions, a waveform generator, a current- or voltage-controlled amplifier, and parallel electrode pairs that are inserted into assay plate wells. Under integrated computer control, this instrument passes user-programmed electrical stimulus protocols to cells within the wells of the microtiter plate.
16-20 hours prior to running the assay on E-VIPR, HEK cells expressing a truncated form of human NaV 1.8 with full channel activity were seeded into microtiter 384-well plates, pre-coated with matrigel, at a density of 25,000 cells per well. 2.5-5% KIR2.1 BacMam virus was added to the final cell suspension before seeding into cell plates. HEK cells were grown in Dulbecco's Modified Eagle's Medium (DMEM) supplemented with 10% FBS (Fetal Bovine Serum, qualified; Sigma #F4135), 1% NEAA (Non-Essential Amino Acids, Gibco #11140), 1% HEPES (Gibco #15630), 1% Pen-Strep (Penicillin-Streptomycin; Gibco #15140) and 5 μg/ml Blasticidin (Gibco #R210-01). Cells were expanded in 5-layer CellSTACK culture chambers or cell culture flasks with vented caps, with 90-95% humidity and 5% CO2.
Reagents and Stock Solutions:
100 mg/mL Pluronic F-127 (Sigma #P2443), in dry DMSO
Compound Plates: Corning 384-well Polypropylene Round Bottom #3656
Cell Plates: 384-well tissue culture treated plates (Greiner #781091-2B)
2.5-5% KIR 2.1 Bacmam virus (produced in-house), prepared as described in Section 3.3 of J. A. Fornwald et al., Gene Expression in Mammalian Cells Using BacMam, a Modified Baculovirus System, 1350 Methods in Molecular Biology 95-116 (2016), the entire contents of which are incorporated by reference. The concentration used can be dependent on viral titer of each batch.
5 mM DiSBAC6(3), a voltage sensitive oxonol acceptor (CAS number 169211-44-3; 5-[3-(1,3-dihexylhexahydro-4,6-dioxo-2-thioxo-5-pyrimidinyl)-2-propen-1-ylidene]-1,3-dihexyldihydro-2-thioxo-4,6(1H,5H)-pyrimidinedione), in dry DMSO. The preparation of DiSBAC6(3) is analogous to that of DiSBAC4(3) as described in Voltage Sensing by Fluorescence Resonance Energy Transfer in Single Cells, Gonzalez, J. E. and Tsien, R. Y. (1995) Biophys. J. 69, 1272-1280.
5 mM CC2-DMPE, a commercially available membrane-bound coumarin phospholipid FRET donor (ThermoFisher Scientific catalog number K1017, CAS number 393782-57-5; tetradecanoic acid, 1,1′-[(1R)-1-[8-(6-chloro-7-hydroxy-2-oxo-2H-1-benzopyran-3-yl)-3-hydroxy-3-oxido-8-oxo-2,4-dioxa-7-aza-3-phosphaoct-1-yl]-1,2-ethanediyl]ester) was prepared in dry DMSO. See also, Improved indicators of cell membrane potential that use fluorescence resonance energy transfer, Gonzalez, J. E. and Tsien, R. Y. (1997) Chem. Biol. 4, 269-277.
Voltage Assay Background Suppression Compound (VABSC-1) is prepared in H2O (89-363 mM, range used to maintain solubility)
Human Serum (HS, Millipore #S1P1-01KL, or Sigma SLBR5469V and SLBR5470V as a 50%/50% mixture, for 25% assay final concentration)
Sodium Chloride 160 mM (9.35 g/L), Potassium Chloride, 4.5 mM (0.335 g/L), Glucose 10 mM (1.8 g/L), Magnesium Chloride (Anhydrous) 1 mM (0.095 g/L), Calcium Chloride 2 mM (0.222 g/L), HEPES 10 mM (2.38 g/L) in water. […]

Chain of human NaV 1.8 (Q9Y5Y9 126-1722 limits assumed): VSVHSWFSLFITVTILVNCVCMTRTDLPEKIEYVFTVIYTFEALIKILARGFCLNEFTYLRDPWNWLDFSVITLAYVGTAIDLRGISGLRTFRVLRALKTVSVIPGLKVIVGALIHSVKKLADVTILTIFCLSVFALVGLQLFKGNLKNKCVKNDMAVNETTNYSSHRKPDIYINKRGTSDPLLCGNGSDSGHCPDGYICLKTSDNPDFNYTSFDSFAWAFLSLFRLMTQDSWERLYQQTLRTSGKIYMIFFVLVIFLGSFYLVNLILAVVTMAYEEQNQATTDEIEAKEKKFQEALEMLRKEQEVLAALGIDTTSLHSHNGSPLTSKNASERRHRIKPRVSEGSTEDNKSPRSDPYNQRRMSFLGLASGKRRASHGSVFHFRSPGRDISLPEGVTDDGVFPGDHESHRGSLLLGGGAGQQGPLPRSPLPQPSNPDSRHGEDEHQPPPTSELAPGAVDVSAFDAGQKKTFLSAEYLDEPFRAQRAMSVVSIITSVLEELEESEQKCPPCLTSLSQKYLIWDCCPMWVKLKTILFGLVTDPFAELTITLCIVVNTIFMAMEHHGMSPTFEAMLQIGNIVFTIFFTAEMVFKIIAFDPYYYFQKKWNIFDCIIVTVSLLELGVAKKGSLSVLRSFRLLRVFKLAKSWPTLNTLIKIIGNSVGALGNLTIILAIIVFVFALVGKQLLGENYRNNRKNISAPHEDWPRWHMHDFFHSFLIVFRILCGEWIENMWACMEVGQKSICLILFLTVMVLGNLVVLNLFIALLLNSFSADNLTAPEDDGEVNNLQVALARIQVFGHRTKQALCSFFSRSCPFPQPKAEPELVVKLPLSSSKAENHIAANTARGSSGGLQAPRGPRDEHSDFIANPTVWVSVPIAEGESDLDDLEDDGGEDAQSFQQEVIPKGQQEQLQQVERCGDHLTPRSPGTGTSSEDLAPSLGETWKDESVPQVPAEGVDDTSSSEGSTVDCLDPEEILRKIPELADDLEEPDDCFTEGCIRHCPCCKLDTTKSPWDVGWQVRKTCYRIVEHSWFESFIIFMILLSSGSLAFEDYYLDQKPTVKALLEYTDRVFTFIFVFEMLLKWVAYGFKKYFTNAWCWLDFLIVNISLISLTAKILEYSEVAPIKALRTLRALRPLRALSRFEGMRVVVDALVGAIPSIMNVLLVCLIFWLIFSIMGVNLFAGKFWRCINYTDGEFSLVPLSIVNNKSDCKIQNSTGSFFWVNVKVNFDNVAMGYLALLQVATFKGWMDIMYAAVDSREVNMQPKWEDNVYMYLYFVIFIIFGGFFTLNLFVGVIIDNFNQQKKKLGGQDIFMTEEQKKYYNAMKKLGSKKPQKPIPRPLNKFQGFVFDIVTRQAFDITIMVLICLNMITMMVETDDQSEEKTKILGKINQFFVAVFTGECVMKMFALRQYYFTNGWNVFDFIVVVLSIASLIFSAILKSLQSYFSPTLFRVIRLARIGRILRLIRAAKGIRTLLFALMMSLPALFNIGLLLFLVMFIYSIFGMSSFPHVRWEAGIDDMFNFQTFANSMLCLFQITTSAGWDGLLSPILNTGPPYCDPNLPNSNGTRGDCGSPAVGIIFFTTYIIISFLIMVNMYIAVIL

Question: With CCOC(=O)c1c(-c2cc(C(F)(F)F)ncc2N2CCCC(F)(F)CC2)[nH]c(C)c(C)c1=O [Compound 34, ethyl 2-[5-(4,4-difluoroazepan-1-yl)-2-(trifluoromethyl)-4-pyridyl]-5,6-dimethyl-4-oxo-1H-pyridine-3-carboxylate] as the compound, how does the IC50 read?
Answer: 2 to 5 µM

Question: How did the IC50 turn out when CCOC(=O)c1c(C)[nH]c(-c2c(Oc3ccc(F)c(F)c3C)ncc(C(F)(F)F)c2C)c(C)c1=O [Compound 43, ethyl 6-[2-(3,4-difluoro-2-methyl-phenoxy)-4-methyl-5-(trifluoromethyl)-3-pyridyl]-2,5-dimethyl-4-oxo-1H-pyridine-3-carboxylate] was run?
Answer: 0.5 to 2 µM

Question: For COc1c(Oc2cc(C(F)(F)F)c(F)cc2-c2cc(=O)nc(C)[nH]2)ccc(F)c1F [Compound 55, 6-[2-(3,4-difluoro-2-methoxy-phenoxy)-5-fluoro-4-(trifluoromethyl)phenyl]-2-methyl-1H-pyrimidin-4-one], which IC50 is on record?
Answer: ≥ 5 µM

Question: How did the IC50 turn out when Cc1cc(=O)cc(-c2cc3ccccc3nc2OCc2ccccc2)[nH]1 [Compound 105, 2-(2-benzyloxy-3-quinolyl)-6-methyl-1H-pyridin-4-one] was run?
Answer: ≥ 5 µM

Question: Which IC50 does the source give for Cc1cc(=O)cc(-c2cnc(C(F)(F)F)nc2C2CCC(F)(F)CC2)[nH]1 [Compound 109, 2-[4-(4,4-difluorocyclohexyl)-2-(trifluoromethyl)pyrimidin-5-yl]-6-methyl-1H-pyridin-4-one] here?
Answer: 2 to 5 µM

Question: Cc1c(Oc2nc3ccccc3cc2-c2cc(=O)cc[nH]2)ccc(F)c1F [Compound 115, 2-[2-(3,4-difluoro-2-methyl-phenoxy)-3-quinolyl]-1H-pyridin-4-one] was tested. Which IC50 did it give?
Answer: 0.5 to 2 µM

Question: For Cc1[nH]c(-c2ccc(C(C)(C)C)cc2OCC2CC2(F)F)cc(=O)c1C (stereo not drawn) [Compound 135, 6-[4-tert-butyl-2-[(2,2-difluorocyclopropyl)methoxy]phenyl]-2,3-dimethyl-1H-pyridin-4-one], which IC50 is on record?
Answer: 0.5 to 2 µM

Question: For Cc1cc(=O)cc(-c2ccc(C(C)(C)C)cc2OCC2CC2(F)F)[nH]1 (stereo not drawn) [Compound 136], which IC50 is on record?
Answer: 2 to 5 µM

Question: Which IC50 does the source give for Cc1[nH]c(-c2cc(C(F)(F)F)ncc2C2CCC(C(F)(F)F)CC2)cc(=O)c1C (stereo not drawn) [Compound 142, 2,3-dimethyl-6-[2-(trifluoromethyl)-5-[4-(trifluoromethyl)cyclohexyl]-4-pyridyl]-1H-pyridin-4-one] here?
Answer: 0.5 to 2 µM

Question: How did the IC50 turn out when Cc1cc(=O)cc(-c2ccccc2OCC2CC2)[nH]1 [Compound 146, 2-[2-(cyclopropylmethoxy)phenyl]-6-methyl-1H-pyridin-4-one] was run?
Answer: ≥ 5 µM

Question: Which IC50 does the source give for Cc1cc(=O)cc(-c2ccccc2C2CC2)[nH]1 [Compound 148, 2-(2-cyclopropylphenyl)-6-methyl-1H-pyridin-4-one] here?
Answer: ≥ 5 µM

Question: How did the IC50 turn out when Cc1cc(=O)cc(-c2cc(C(F)(F)F)cnc2N2CCCC(F)(F)CC2)[nH]1 [Compound 156, 2-[2-(4,4-difluoroazepan-1-yl)-5-(trifluoromethyl)-3-pyridyl]-6-methyl-1H-pyridin-4-one] was run?
Answer: 0.5 to 2 µM

Question: Which IC50 does the source give for Cc1cc(=O)cc(-c2cc(C(F)(F)F)cnc2N2CCC(F)(F)CC2)[nH]1 [Compound 157, 2-[2-(4,4-difluoro-1-piperidyl)-5-(trifluoromethyl)-3-pyridyl]-6-methyl-1H-pyridin-4-one] here?
Answer: ≥ 5 µM

Question: How did the IC50 turn out when Cc1cc(C(C)(C)C)cc(Oc2ccc(F)cc2O)c1-c1cc(=O)cc[nH]1 [Compound 160, 2-[4-tert-butyl-2-(4-fluoro-2-hydroxy-phenoxy)-6-methyl-phenyl]-1H-pyridin-4-one] was run?
Answer: ≥ 5 µM

Question: How did the IC50 turn out when Cc1[nH]c(-c2c(Oc3ccc(F)c(F)c3C)ncc(C(F)(F)F)c2C)cc(=O)c1-c1cn(C)c(C)n1 [Compound 162, 6-[2-(3,4-difluoro-2-methyl-phenoxy)-4-methyl-5-(trifluoromethyl)-3-pyridyl]-3-(1,2-dimethylimidazol-4-yl)-2-methyl-1H-pyridin-4-one] was run?
Answer: 0.5 to 2 µM

Question: CCOC(=O)c1c(-c2cc3ccccc3nc2N2CCC[C@@H](OC)C2)[nH]c(C)c(OC)c1=O [Compound 224, ethyl 5-methoxy-2-[2-[(3R)-3-methoxy-1-piperidyl]-3-quinolyl]-6-methyl-4-oxo-1H-pyridine-3-carboxylate] was tested. Which IC50 did it give?
Answer: 2 to 5 µM

Question: Which IC50 does the source give for CCOC(=O)c1c(-c2cc3ccccc3nc2N2CCCC(F)(F)C2)[nH]c(C)c(OC)c1=O [Compound 226, ethyl 2-[2-(3,3-difluoro-1-piperidyl)-3-quinolyl]-5-methoxy-6-methyl-4-oxo-1H-pyridine-3-carboxylate] here?
Answer: 2 to 5 µM

Question: Which IC50 does the source give for CCOC(=O)c1c(-c2cc3ccccc3nc2N2CCCOCC2)[nH]c(C)c(OC)c1=O [Compound 227, ethyl 5-methoxy-6-methyl-2-[2-(1,4-oxazepan-4-yl)-3-quinolyl]-4-oxo-1H-pyridine-3-carboxylate] here?
Answer: 2 to 5 µM

Question: CCOC(=O)c1c(-c2cc3ccccc3nc2N2C[C@@H]3CCO[C@@H]3C2)[nH]c(C)c(OC)c1=O [Compound 228, ethyl 2-[2-[(3aS,6aS)-2,3,3a,4,6,6a-hexahydrofuro[2,3-c]pyrrol-5-yl]-3-quinolyl]-5-methoxy-6-methyl-4-oxo-1H-pyridine-3-carboxylate] was tested. Which IC50 did it give?
Answer: ≥ 5 µM

Question: With CCOC(=O)c1c(-c2cc3ccccc3nc2N2CCC(OC)CC2)[nH]c(C)c(OC)c1=O [Compound 229, ethyl 5-methoxy-2-[2-(4-methoxy-1-piperidyl)-3-quinolyl]-6-methyl-4-oxo-1H-pyridine-3-carboxylate] as the compound, how does the IC50 read?
Answer: 2 to 5 µM

Question: With CCOC(=O)c1c(-c2cc3ccccc3nc2N2CCC[C@H](OC)C2)[nH]c(C)c(OC)c1=O [Compound 231, ethyl 5-methoxy-2-[2-[(3S)-3-methoxy-1-piperidyl]-3-quinolyl]-6-methyl-4-oxo-1H-pyridine-3-carboxylate] as the compound, how does the IC50 read?
Answer: 2 to 5 µM

Question: CCOC(=O)c1c(-c2cc3ccccc3nc2N2CCC(C)(C)C2)[nH]c(C)c(OC)c1=O [Compound 238, ethyl 2-[2-(3,3-dimethylpyrrolidin-1-yl)-3-quinolyl]-5-methoxy-6-methyl-4-oxo-1H-pyridine-3-carboxylate] was tested. Which IC50 did it give?
Answer: 0.5 to 2 µM

Question: Which IC50 does the source give for CCOC(=O)c1c(-c2cc3ccccc3nc2N2CCC(F)(F)C2)[nH]c(C)c(OC)c1=O [Compound 242, ethyl 2-[2-(3,3-difluoropyrrolidin-1-yl)-3-quinolyl]-5-methoxy-6-methyl-4-oxo-1H-pyridine-3-carboxylate] here?
Answer: 2 to 5 µM

Question: For CCOC(=O)c1c(-c2cc3ccccc3nc2N2CC[C@H](OC)C2)[nH]c(C)c(OC)c1=O [Compound 244, ethyl 5-methoxy-2-[2-[(3S)-3-methoxypyrrolidin-1-yl]-3-quinolyl]-6-methyl-4-oxo-1H-pyridine-3-carboxylate], which IC50 is on record?
Answer: 2 to 5 µM

Question: CCOC(=O)c1c(-c2cc3ccccc3nc2N2CCOCC2)[nH]c(C)c(OC)c1=O [Compound 249, ethyl 5-methoxy-6-methyl-2-(2-morpholino-3-quinolyl)-4-oxo-1H-pyridine-3-carboxylate] was tested. Which IC50 did it give?
Answer: ≥ 5 µM

Question: Which IC50 does the source give for CCOC(=O)c1c(-c2cc3ccccc3nc2N2CCCCC2)[nH]c(C)c(OC)c1=O [Compound 250, ethyl 5-methoxy-6-methyl-4-oxo-2-[2-(1-piperidyl)-3-quinolyl]-1H-pyridine-3-carboxylate] here?
Answer: 0.5 to 2 µM

Question: For Cc1cc(=O)[nH]c(-c2nc(C(F)(F)F)ccc2N2CCCC(F)(F)CC2)n1 [Compound 252, 2-[3-(4,4-difluoroazepan-1-yl)-6-(trifluoromethyl)-2-pyridyl]-4-methyl-1H-pyrimidin-6-one], which IC50 is on record?
Answer: ≥ 5 µM

— patent US20250388543A1, “HETEROARYL COMPOUNDS FOR THE TREATMENT OF PAIN” (VERTEX PHARMACEUTICALS INCORPORATED, priority 2022, published 2025)
